{"source": "patent US5036008A", "about": "“Antitumor antibiotic BU-3285T” (Bristol-Myers Company, priority 1990, dated 1991)", "key": {"[1]": {"test_system": "HCT-116 (human colon carcinoma) cells", "assay": "In vitro cytotoxicity (Table 14)", "format": "cell-based", "experimental": "(§2) B16-F10 (murine melanoma), HCT-116 (human colon carcinoma), A549 (human lung carcinoma) and A549/VP29 (an etoposide-resistant subline of A549) were grown in Eagle's MEM (Nissui) supplemented with FCS (fetal calf serum, 10%) and non-essential amino acids (B16-F10), or in McCoy's 5A medium (Gibco) with FCS (10%), essential and non-essential amino acids, vitamins and antibiotics (HCT-116 and both of A549) at 37° C. under a humidified atmosphere in a 5% CO2 incubator. Exponentially growing B16-F10, HCT-116 and A549 cells were harvested, counted and suspended in the culture medium at 1.5×10^4, 3×10^4 and 3×10^4 cells/ml, respectively. After planting 180 μl of cell suspension into wells of a 96-well microtiter plate on day 0, the test materials (20 μl) were added on day 1 and the plates were incubated for 72 hours. The cytotoxic activity was colorimetrically determined at 540 nm after staining viable cells with neutral red solution."}, "[2]": {"test_system": "B16-F10 (murine melanoma) cells", "assay": "In vitro cytotoxicity (Table 14)", "format": "cell-based", "details": "Mus musculus", "experimental": "as §2"}, "C. albicans A9540": {"test_system": "C. albicans A9540", "assay": "In vitro antifungal activity, serial agar dilution", "details": "Candida albicans, A9540, 40 h, pH 7", "experimental": "(§3) In vitro antifungal activity was determined against various fungi by the serial agar dilution method. Sabouraud dextrose agar (pH 7.0) was used for the experiment. The inoculum size was adjusted to 10^6 CFU/ml. After incubation at 28° C. for 40 hours, the minimum inhibitory concentration (MIC) was examined."}, "A. fumigatus IAM2034": {"test_system": "A. fumigatus IAM2034", "assay": "microbe, parasite or virus in culture", "details": "Aspergillus fumigatus, IAM2034, 40 h, pH 7", "experimental": "as §3"}, "A. flavus FA21436": {"test_system": "A. flavus FA21436", "assay": "In vitro antifungal activity, serial agar dilution", "details": "Aspergillus flavus, FA21436, 40 h, pH 7", "experimental": "as §3"}, "C. neoformans IAM4514": {"test_system": "C. neoformans IAM4514", "assay": "In vitro antifungal activity, serial agar dilution", "details": "Cryptococcus neoformans, IAM4514, 40 h, pH 7", "experimental": "as §3"}, "[3]": {"test_system": "Aspergillus fumigatus IAM2530", "assay": "In vitro antifungal activity, serial agar dilution", "details": "IAM2530, 40 h, pH 7", "experimental": "as §3"}, "[4]": {"test_system": "Trichophyton mentagrophytes D155", "assay": "In vitro antifungal activity, serial agar dilution", "details": "D155, 40 h, pH 7", "experimental": "as §3"}, "[5]": {"test_system": "Fusarium moniliforme A2284", "assay": "In vitro antifungal activity, serial agar dilution", "details": "Fusarium verticillioides, A2284, 40 h, pH 7", "experimental": "as §3"}, "[6]": {"test_system": "Sporothrix schenckii IF08158", "assay": "microbe, parasite or virus in culture", "details": "IF08158, 40 h, pH 7", "experimental": "as §3"}, "[7]": {"test_system": "Petriellidium boydii IF08078", "assay": "In vitro antifungal activity, serial agar dilution", "details": "Scedosporium boydii, IF08078, 40 h, pH 7", "experimental": "as §3"}, "Candida albicans IAM4888": {"test_system": "Candida albicans IAM4888", "assay": "In vitro antifungal activity, serial agar dilution", "details": "IAM4888, 40 h, pH 7", "experimental": "as §3"}, "[8]": {"test_system": "Blastomyces dermatidis D40", "assay": "In vitro antifungal activity, serial agar dilution", "details": "D40, 40 h, pH 7", "experimental": "as §3"}, "[9]": {"test_system": "Cryptococcus neoformans D49", "assay": "In vitro antifungal activity, serial agar dilution", "details": "D49, 40 h, pH 7", "experimental": "as §3"}, "Piricularia oryzae D91": {"test_system": "Piricularia oryzae D91", "assay": "microbe, parasite or virus in culture", "format": "cell-based", "details": "40 h, pH 7"}, "T. mentagrophytes #4329": {"test_system": "T. mentagrophytes #4329", "assay": "In vitro antifungal activity, serial agar dilution", "details": "Trichophyton mentagrophytes, 40 h, pH 7", "experimental": "as §3"}, "Mucor spinosus IF05317": {"test_system": "Mucor spinosus IF05317", "assay": "In vitro antifungal activity, serial agar dilution", "details": "IF05317, 40 h, pH 7", "experimental": "as §3"}, "[10]": {"test_system": "A549 (human lung carcinoma) cells", "assay": "In vitro cytotoxicity (Table 14)", "format": "cell-based", "details": "A549, 72 hours, neutral red, read-out: IC50", "experimental": "as §2"}, "Solubility": {"assay": "Solubility", "format": "physicochemical"}, "P388 leukemia": {"test_system": "P388 leukemia", "assay": "In vivo antitumor activity against P388 leukemia (Table 8)", "details": "P388 leukemia in mice"}, "[11]": {"test_system": "protein biosynthesis in L1210 leukemia cells", "assay": "Inhibition of macromolecule biosynthesis, protein (Table 15)", "format": "cell-based, murine", "details": "Mus musculus, labeled precursor, 15 min + 60 min, 37° C., read-out: IC50, protein synthesis", "description": "(§1) Inhibitory effects of the above compounds on macromolecule (DNA, RNA and protein) biosynthesis were determined in cultured L1210 murine leukemia cells. The cells (5×10^5 cells/ml) were incubated with the test materials at 37° C. for 15 minutes and then further incubated for 60 minutes after the addition of labeled precursor, ^3 H-thymidine, ^14 C-uridine or ^3 H-leucine into the cultured mixture. After washing with chilled 5% trichloroacetic acid solution, the radioactivity incorporated into the acid-insoluble fraction of the cells was determined with a liquid scintillation counter."}, "[12]": {"test_system": "DNA biosynthesis in L1210 leukemia cells", "assay": "Inhibition of macromolecule biosynthesis, DNA (Table 15)", "format": "cell-based, murine", "description": "as §1"}, "[13]": {"test_system": "A549/VP29 (etoposide-resistant subline of A549) cells", "assay": "In vitro cytotoxicity (Table 14)", "experimental": "(§4) After planting 180 μl of cell suspension into wells of a 96-well microtiter plate on day 0, the test materials (20 μl) were added on day 1 and the plates were incubated for 72 hours. The cytotoxic activity was colorimetrically determined at 540 nm after staining viable cells with neutral red solution."}, "[14]": {"test_system": "murine and human tumor cell lines", "assay": "In vitro cytotoxicity, overall statement", "details": "murine and human tumor cell lines", "experimental": "as §4"}, "fungi": {"test_system": "fungi", "assay": "In vitro antifungal activity, overall statement", "details": "various fungi", "experimental": "as §3"}, "[15]": {"test_system": "RNA biosynthesis in L1210 leukemia cells", "assay": "Inhibition of macromolecule biosynthesis, RNA (Table 15)", "format": "cell-based, murine", "details": "Mus musculus, labeled precursor, 15 min + 60 min, 37° C., read-out: IC50, RNA synthesis", "description": "as §1"}}, "note": "Like-named read-outs stand apart in the source and are kept apart here."}
{"smiles": "COc1cccc2c1C(=O)c1c(O)c3c(c(O)c1C2=O)C[C@@](O)(C(=O)CO)C[C@@H]3O[C@H]1C[C@H](N)[C@H](O)[C@H](C)O1", "note": "[Adriamycin, reference compound]", "values": [{"measurement": "IC50", "setting": "[1]; HCT-116, 72 h", "result": 0.3, "unit": "µg/mL"}, {"measurement": "IC50", "setting": "[2]; B16-F10, 72 h", "result": 0.03, "unit": "µg/mL"}]}
{"smiles": "C[C@@H]1[C@H](O)[C@@H](C)/C=C/C=C/C=C/C=C/C=C/C=C/C=C/[C@H](O[C@@H]2O[C@H](C)[C@@H](O)[C@H](N)[C@@H]2O)C[C@@H]2O[C@](O)(C[C@@H](O)C[C@@H](O)[C@H](O)CC[C@@H](O)C[C@@H](O)CC(=O)O[C@H]1C)C[C@H](O)[C@H]2C(=O)O", "note": "[Amphotericin B]", "values": [{"measurement": "MIC", "setting": "C. albicans A9540", "result": 1.6, "unit": "µg/mL"}, {"measurement": "MIC", "setting": "A. fumigatus IAM2034", "result": 3.1, "unit": "µg/mL"}, {"measurement": "MIC", "setting": "A. flavus FA21436", "result": 1.6, "unit": "µg/mL"}, {"measurement": "MIC", "setting": "C. neoformans IAM4514", "result": 0.8, "unit": "µg/mL"}, {"measurement": "MIC", "setting": "[3]", "result": 3.1, "unit": "µg/mL"}, {"measurement": "MIC", "setting": "[4]", "result": 6.3, "unit": "µg/mL"}, {"measurement": "MIC", "setting": "[5]", "result": 3.1, "unit": "µg/mL"}, {"measurement": "MIC", "setting": "[6]", "result": "> 100", "unit": "µg/mL"}, {"measurement": "MIC", "setting": "[7]", "result": "> 100", "unit": "µg/mL"}, {"measurement": "MIC", "setting": "Candida albicans IAM4888", "result": 1.6, "unit": "µg/mL"}, {"measurement": "MIC", "setting": "[8]", "result": 12.5, "unit": "µg/mL"}, {"measurement": "MIC", "setting": "[9]", "result": 0.8, "unit": "µg/mL"}, {"measurement": "MIC", "setting": "Piricularia oryzae D91", "result": 12.5, "unit": "µg/mL"}, {"measurement": "MIC", "setting": "T. mentagrophytes #4329", "result": 6.3, "unit": "µg/mL"}, {"measurement": "MIC", "setting": "Mucor spinosus IF05317", "result": 6.3, "unit": "µg/mL"}]}
{"smiles": "CCCCC/C=C/C=C\\C=C/C(O)C(C)C(O)C/C=C/C1OC(=O)C=CC1O", "note": "(stereo not drawn) [BU-3285T desulfate]", "values": [{"measurement": "IC50", "setting": "[10]", "result": 13, "unit": "µg/mL"}, {"measurement": "solubility in acetone", "setting": "Solubility; acetone", "result": "soluble"}, {"measurement": "solubility in carbon tetrachloride", "setting": "Solubility; carbon tetrachloride", "result": "insoluble"}, {"measurement": "solubility in dimethyl sulfoxide", "setting": "Solubility; dimethyl sulfoxide", "result": "soluble"}, {"measurement": "solubility in ethanol", "setting": "Solubility; ethanol", "result": "soluble"}, {"measurement": "solubility in methanol", "setting": "Solubility; methanol", "result": "soluble"}, {"measurement": "solubility in n-hexane", "setting": "Solubility; n-hexane", "result": "insoluble"}, {"measurement": "solubility in water", "setting": "Solubility; water", "result": "slightly soluble"}, {"measurement": "in vivo antitumor activity", "setting": "P388 leukemia", "result": "not active"}, {"measurement": "IC50", "setting": "[1]; HCT-116, 72 hours, neutral red, read-out: IC50", "result": 5.5, "unit": "µg/mL"}, {"measurement": "IC50", "setting": "[11]", "result": 8.1, "unit": "µg/mL"}, {"measurement": "IC50", "setting": "[2]; B16-F10, 72 hours, neutral red, read-out: IC50", "result": 14, "unit": "µg/mL"}, {"measurement": "IC50", "setting": "[12]; Mus musculus, L1210, labeled precursor, 15 min + 60 min, 37° C., read-out: IC50, DNA synthesis", "result": "> 100", "unit": "µg/mL"}, {"measurement": "inhibitory effect on DNA synthesis", "setting": "[12]; at 100 μg/ml, the highest concentration tested", "result": "no significant inhibitory effect"}, {"measurement": "IC50", "setting": "[13]; A549/VP29, 72 hours, neutral red", "result": 15, "unit": "µg/mL"}, {"measurement": "cytotoxicity against resistant A549/VP29 compared with parent cell line", "setting": "[13]; vs A549 parent", "result": "almost the same cytotoxicity"}, {"measurement": "cytotoxicity in vitro", "setting": "[14]", "result": "quite active"}, {"measurement": "antifungal activity in vitro", "setting": "fungi", "result": "no activity against fungi in vitro"}, {"measurement": "IC50", "setting": "[15]", "result": 6.1, "unit": "µg/mL"}]}
